The structures appear in SMILES notation. Like-named read-outs stand apart in the source and are kept apart here.

The assay has as its target T1, Human GO (Homo sapiens, UniProt Q9UJM8).
T1 construct: purchased Novus Biologicals NBP1-72412
T1 sequence (Q9UJM8 1-370): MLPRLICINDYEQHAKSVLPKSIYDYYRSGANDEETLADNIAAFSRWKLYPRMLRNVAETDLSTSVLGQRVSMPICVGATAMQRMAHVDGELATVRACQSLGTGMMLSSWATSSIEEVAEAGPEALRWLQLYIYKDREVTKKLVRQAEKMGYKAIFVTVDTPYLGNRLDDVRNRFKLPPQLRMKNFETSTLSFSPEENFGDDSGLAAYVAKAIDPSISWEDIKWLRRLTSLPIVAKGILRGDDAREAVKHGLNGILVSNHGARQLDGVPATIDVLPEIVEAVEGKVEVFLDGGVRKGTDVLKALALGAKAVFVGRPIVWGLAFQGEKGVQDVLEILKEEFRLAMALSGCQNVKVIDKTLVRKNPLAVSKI
In words: GO enzymatic assay (coupled fluorescence/HRP assay, glycolate substrate). The assay is classed as biochemical. The conditions noted are these: read-out: Range (range of IC50 values calculated from the enzymatic assays). The procedure:
Assay 1: GO Enzymatic Assay
GO was incubated with its substrate, glycolate, in 50 mM potassium phosphate buffer, pH 7. […] The enzyme was optimized and the kinetics was determined.
Compound inhibition was determined by adding various concentrations of inhibitors in the GO enzyme assay. The IC50 value for each measured compound was generated from sigmoidal dose-response (variable slope) curves with GraphPad Prism software (GraphPad Software, Inc., San Diego, Calif.) using the percent inhibition of GO activity relative to DMSO control.

Regarding `CCCC(O)(CC)Cn1ccc(-c2ccc([C@H]3CC[C@H](Oc4nn[nH]c4C(=O)O)CC3)cc2)n1` (relative stereo) [Example 458, 4-(((trans)-4-(4-(1-(2-ethyl-2-hydroxypentyl)-1H-pyrazol-3-yl)phenyl)cyclohexyl)oxy)-1H-1,2,3-triazole-5-carboxylic acid], for the setting “Table 4”, the IC50 is < 0.1 µM.

As to `CCCC(O)(CC)Cn1nccc1-c1ccc([C@H]2CC[C@H](Oc3nn[nH]c3C(=O)O)CC2)cc1` (relative stereo) [Example 470, 4-(((trans)-4-(4-(1-(2-ethyl-2-hydroxypentyl)-1H-pyrazol-5-yl)phenyl)cyclohexyl)oxy)-1H-1,2,3-triazole-5-carboxylic acid], where the note is “Table 4”, the IC50 was < 0.1 µM.

As for `CCC(Cc1cc(-c2ccc([C@H]3CC[C@H](Oc4nn[nH]c4C(=O)O)CC3)cc2)[nH]n1)OC` (relative stereo) [Example 475, 4-(((trans)-4-(4-(3-(2-methoxybutyl)-1H-pyrazol-5-yl)phenyl)cyclohexyl)oxy)-1H-1,2,3-triazole-5-carboxylic acid], the IC50 (Table 4) is < 0.1 µM.

As to `O=C(O)c1[nH]nnc1O[C@H]1CC[C@H](c2ccc(-c3ccnn3[C@H]3CCCC[C@@H]3O)cc2)CC1` (relative stereo) [Example 476, 4-(((trans)-4-(4-(1-((1S,2S)-2-hydroxycyclohexyl)-1H-pyrazol-5-yl)phenyl)cyclohexyl)oxy)-1H-1,2,3-triazole-5-carboxylic acid], under “Table 4”, the IC50 was < 0.1 µM.

For `O=C(O)c1[nH]nnc1O[C@H]1CC[C@H](c2ccc(OC[C@H]3CCC[C@H](CO)C3)cc2)CC1` (relative stereo) [Example 483, 4-(((trans)-4-(4-(((trans)-3-(hydroxymethyl)cyclohexyl)methoxy)phenyl)cyclohexyl)oxy)-1H-1,2,3-triazole-5-carboxylic acid], the IC50 (Table 4) is < 0.1 µM.

Turning to `O=C(O)c1[nH]nnc1Sc1nc(-c2ccc(Cl)c(Cl)c2)cs1` [Compound 2, 4-((4-(3,4-dichlorophenyl)thiazol-2-yl)thio)-1H-1,2,3-triazole-5-carboxylic acid], the IC50 (Table 1) is < 0.1 µM.

On to `O=C(O)c1[nH]nnc1Sc1ncc(-c2ccc(Cl)c(Cl)c2)s1` [Compound 3, 4-((5-(3,4-dichlorophenyl)thiazol-2-yl)thio)-1H-1,2,3-triazole-5-carboxylic acid], for which the IC50 (Table 1) was < 0.1 µM.

With `O=C(O)c1[nH]nnc1Sc1ccc(-c2ccc(Cl)cc2)cc1` [Compound 5, 4-((4′-chloro-[1,1′-biphenyl]-4-yl)thio)-1H-1,2,3-triazole-5-carboxylic acid], the IC50 (Table 1) was < 0.1 µM.

In the case of `CN1CCN(c2cccc(Sc3[nH]nnc3C(=O)O)c2)CC1` [Compound 6, 5-((3-(4-methylpiperazin-1-yl)phenyl)thio)-1H-1,2,3-triazole-4-carboxylic acid 2,2,2-trifluoroacetate], the IC50 (Table 1) is > 10 µM.

Turning to `O=C(O)c1[nH]nnc1Sc1ccc(N2CCCCC2)cc1` [Compound 7, 4-((4-(piperidin-1-yl)phenyl)thio)-1H-1,2,3-triazole-5-carboxylic acid 2,2,2-trifluoroacetate], the IC50 (Table 1) was 0.1 to 1 µM.

As for `O=C(O)c1[nH]nnc1Sc1csc(-c2ccc(Cl)c(Cl)c2)n1` [Compound 8, 4-((2-(3,4-dichlorophenyl)thiazol-4-yl)thio)-1H-1,2,3-triazole-5-carboxylic acid], the IC50 (Table 1) was < 0.1 µM.

Consider `O=C(OC1CCC1)c1[nH]nnc1Sc1nc(-c2ccc(Cl)c(Cl)c2)cs1` [Compound 9, cyclobutyl 4-((4-(3,4-dichlorophenyl)thiazol-2-yl)thio)-1H-1,2,3-triazole-5-carboxylate], for which, under “Table 1”, the IC50 was > 10 µM.

For `CN1CCN(c2ccc(Sc3nn[nH]c3C(=O)O)cc2)CC1` [Compound 10, 4-((4-(4-methylpiperazin-1-yl)phenyl)thio)-1H-1,2,3-triazole-5-carboxylic acid], the IC50 (Table 1) was 1 to 10 µM.

With `CC(C)OC(=O)c1[nH]nnc1Sc1nc(-c2ccc(Cl)c(Cl)c2)cs1` [Compound 11, isopropyl 4-((4-(3,4-dichlorophenyl)thiazol-2-yl)thio)-1H-1,2,3-triazole-5-carboxylate], where the note is “Table 1”, the IC50 is > 10 µM.

Consider `O=C(O)c1[nH]nnc1Sc1ccc(-c2ccc(Br)cc2)cn1` [Compound 12, 4-((5-(4-bromophenyl)pyridin-2-yl)thio)-1H-1,2,3-triazole-5-carboxylic acid 2,2,2-trifluoroacetate], for which the IC50 (Table 1) is 0.1 to 1 µM.

As for `O=C(O)c1[nH]nnc1Sc1nnc(-c2ccc(Cl)c(Cl)c2)[nH]1` [Compound 13, 4-((5-(3,4-dichlorophenyl)-4H-1,2,4-triazol-3-yl)thio)-1H-1,2,3-triazole-5-carboxylic acid], the IC50 (Table 1) is 0.1 to 1 µM.

For `COc1ccc(-c2ccc(Sc3nn[nH]c3C(=O)O)cc2)cc1` [Compound 14, 4-((4′-methoxy-[1,1′-biphenyl]-4-yl)thio)-1H-1,2,3-triazole-5-carboxylic acid], for the setting “Table 1”, the IC50 was < 0.1 µM.

Regarding `COc1ccc(-c2csc(Sc3nn[nH]c3C(=O)O)n2)cc1Cl` [Compound 15, 4-((4-(3-chloro-4-methoxyphenyl)thiazol-2-yl)thio)-1H-1,2,3-triazole-5-carboxylic acid], for the setting “Table 1”, the IC50 is < 0.1 µM.

Turning to `O=C(O)c1[nH]nnc1Sc1ccc(-c2ccc(OC(F)(F)F)cc2)cc1` [Compound 16, 4-((4′-(trifluoromethoxy)-[1,1′-biphenyl]-4-yl)thio)-1H-1,2,3-triazole-5-carboxylic acid], the IC50 (Table 1) was < 0.1 µM.

Turning to `COC(=O)c1[nH]nnc1Sc1nc(-c2ccc(Cl)c(Cl)c2)cs1` [Compound 17, methyl 4-((4-(3,4-dichlorophenyl)thiazol-2-yl)thio)-1H-1,2,3-triazole-5-carboxylate], the half-inhibitory concentration (IC50) (Table 1) is > 10 µM.

Turning to `O=C(O)c1[nH]nnc1Sc1nc(-c2ccc(OC3CC3)c(Cl)c2)cs1` [Compound 18, 4-((4-(3-chloro-4-cyclopropoxyphenyl)thiazol-2-yl)thio)-1H-1,2,3-triazole-5-carboxylic acid], the IC50 (Table 1) was < 0.1 µM.

`O=C(OC1CC1)c1[nH]nnc1Sc1nc(-c2ccc(Cl)c(Cl)c2)cs1` [Compound 19, cyclopropyl 4-((4-(3,4-dichlorophenyl)thiazol-2-yl)thio)-1H-1,2,3-triazole-5-carboxylate]: the IC50 (Table 1) was > 10 µM.

For the compound `O=C(O)c1[nH]nnc1Sc1cccc(-c2ccc(Cl)c(Cl)c2)n1` [Compound 20, 4-((6-(3,4-dichlorophenyl)pyridin-2-yl)thio)-1H-1,2,3-triazole-5-carboxylic acid], under “Table 1”, the IC50 was < 0.1 µM.

`O=C(O)c1[nH]nnc1Sc1ccc(-c2ccc(Cl)c(Cl)c2)cc1` [Compound 21, 4-((3′,4′-dichloro-[1,1′-biphenyl]-4-yl)thio)-1H-1,2,3-triazole-5-carboxylic acid]: the IC50 (Table 1) is < 0.1 µM.

As to `O=C(O)c1[nH]nnc1Sc1ccc(-c2ccc(Cl)cc2Cl)cc1` [Compound 22, 4-((2′,4′-dichloro-[1,1′-biphenyl]-4-yl)thio)-1H-1,2,3-triazole-5-carboxylic acid], the IC50 (Table 1) was < 0.1 µM.

On to `COc1cc(-c2nc(Sc3nn[nH]c3C(=O)O)cs2)ccc1Cl` [Compound 23, 4-((2-(4-chloro-3-methoxyphenyl)thiazol-4-yl)thio)-1H-1,2,3-triazole-5-carboxylic acid], for which the IC50 (Table 1) was < 0.1 µM.

Regarding `CC(C)Oc1cc(-c2nc(Sc3nn[nH]c3C(=O)O)cs2)ccc1Cl` [Compound 24, 4-((2-(4-chloro-3-isopropoxyphenyl)thiazol-4-yl)thio)-1H-1,2,3-triazole-5-carboxylic acid], the IC50 (Table 1) is < 0.1 µM.

For `COc1ccc(Cn2nnc(C(=O)O)c2Sc2csc(-c3ccc(OC)c(Cl)c3)n2)cc1` [Compound 25-1, 5-((2-(3-chloro-4-methoxyphenyl)thiazol-4-yl)thio)-1-(4-methoxybenzyl)-1H-1,2,3-triazole-4-carboxylic acid], the IC50 (Table 1) is > 10 µM.

Turning to `COc1ccc(-c2nc(Sc3nn[nH]c3C(=O)O)cs2)cc1Cl` [Compound 25-2, 4-((2-(3-chloro-4-methoxyphenyl)thiazol-4-yl)thio)-1H-1,2,3-triazole-5-carboxylic acid], where the note is “Table 1”, the IC50 was < 0.1 µM.

In the case of `O=C(O)c1[nH]nnc1Sc1csc(-c2ccc(Cl)cc2Cl)n1` [Compound 26, 4-((2-(2,4-dichlorophenyl)thiazol-4-yl)thio)-1H-1,2,3-triazole-5-carboxylic acid], the IC50 (Table 1) was < 0.1 µM.

`CC(C)Oc1ccc(-c2nc(Sc3nn[nH]c3C(=O)O)cs2)cc1Cl` [Compound 27, 4-((2-(3-chloro-4-isopropoxyphenyl)thiazol-4-yl)thio)-1H-1,2,3-triazole-5-carboxylic acid]: the IC50 (Table 1) is < 0.1 µM.

With `Cn1c(Sc2nn[nH]c2C(=O)O)nnc1-c1ccc(Cl)c(Cl)c1` [Compound 28, 4-((5-(3,4-dichlorophenyl)-4-methyl-4H-1,2,4-triazol-3-yl)thio)-1H-1,2,3-triazole-5-carboxylic acid 2,2,2-trifluoroacetate], the IC50 (Table 1) is 1 to 10 µM.

For `CCOc1ccc2sc(Sc3nn[nH]c3C(=O)O)nc2c1` [Compound 29, 4-((5-ethoxybenzo[d]thiazol-2-yl)thio)-1H-1,2,3-triazole-5-carboxylic acid], the IC50 (Table 1) was 0.1 to 1 µM.

The values are drawn from US11384055B2 (BIOMARIN PHARMACEUTICAL INC., priority 2017, dated 2022).
